# Where two headings read alike, the source gives them in different places.
# Key:
# HIV-1 = test: in vitro anti-HIV assay: inhibition of HIV-induced cytopathic effect in MT-4 cells (MTT); assay type: cell-based; details: for IC50: HIV-infected MT-4 cells, dose achieving 50% protection against cytopathic effect, MTT, OD 540 nm, mean value, read-out: IC50; for SI: selectivity index = ratio of CC50 to IC50
# Protocol: (§1) A rapid, sensitive and automated assay procedure was used for the in vitro evaluation of anti-HIV agents. An […] T4-cell line, MT-4, which was previously shown (Koyanagi et al., Int. J. Cancer, 36, 445-451, 1985) to be highly susceptible to and permissive for HIV infection, served as the target cell line. Inhibition of the HIV-induced cytopathic effect was used as the end point. The viability of both HIV- and mock-infected cells was assessed spectrophotometrically via the in situ reduction of 3-(4,5-dimethylthiazol-2-yl)-2,5-diphenyltetrazolium bromide (MTT). The 50% […], cytotoxic concentration (CC50 in μM) was defined as the concentration of compound that reduced the absorbance of the mock-infected control sample by 50%. The percent protection achieved by the compound in HIV-infected cells was calculated by the following formula: [formula]
# (§2) whereby (ODT)HIV is the optical density measured with a given concentration of the test compound in HIV-infected cells; (ODC)HIV is the optical density measured for the control untreated HIV-infected cells; (ODC)MOCK is the optical density measured for the control untreated mock-infected cells; all optical density values were determined at 540 nm. The dose achieving 50% protection according to the above formula was defined as the 50% inhibitory concentration (IC50 in μM). The ratio of CC50 to IC50 was defined as the selectivity index (SI).
# [1] = cytotoxicity in mock-infected MT-4 cells (MTT); details: human, mock-infected MT-4 cells
# Protocol: as §1, §2
# MT-4 cells = test: cytotoxicity in mock-infected MT-4 cells (MTT)
# Protocol: as §1, §2
# [2] = Human immunodeficiency virus 1, MT4
compound,measurement,setting,value
"CC(C)NC(=O)Nc1nc(Cc2c(Cl)cccc2Cl)nc(Nc2ccc(C#N)cc2)n1 [Compound 6, N-[4-[(4-cyano-phenyl)amino]-6-[(2,6-dichlorophenyl)methyl]-1,3,5-triazin-2-yl]-N′-(1-methylethyl)-urea]",IC50,HIV-1; [2],0.38 µM
same,SI,HIV-1,>263
same,melting point,,267 to 268 °C
"NC(=O)c1ccc(Nc2nc(N)nc(Cc3c(Cl)ccc4[nH]ccc34)n2)cc1 [Compound 9, 4-[[4-amino-6-[(5-chloro-1H-indol-4-yl)methyl]-1,3,5-triazin-2-yl]amino]benzamide]",IC50,HIV-1; [2],0.066 µM
same,SI,HIV-1,830
same,melting point,,204 to 205 °C
"CNc1nc(Cc2c(Cl)cccc2Cl)nc(Nc2ccc(C#N)cc2)n1 [Compound 7, 4-[[4-[(2,6-dichlorophenyl)methyl]-6-(methyl-amino)-1,3,5-triazin-2-yl]amino]benzonitrile]",IC50,HIV-1; [2],0.01 µM
same,SI,HIV-1,>14285
same,melting point,,229 to 230 °C
same,CC50,[1],> 100 µM
N#Cc1ccc(Nc2nc(Cc3c(Cl)cccc3Cl)nc(NCCOCCO)n2)cc1 [Compound 27],IC50,HIV-1,0.056 µM
same,SI,HIV-1,837
same,CC50,MT-4 cells,46.8 µM
N#Cc1ccc(Nc2nc(N)nc(Cc3c(F)cccc3C(F)(F)F)n2)cc1 [Compound 58],IC50,HIV-1,0.014 µM
same,SI,HIV-1,1418
same,CC50,MT-4 cells,20 µM
COc1cc(Cc2nc(N)nc(Nc3ccc(C#N)cc3)n2)cc(OC)c1 [Compound 53],IC50,HIV-1,0.41 µM
same,SI,HIV-1,>48
same,CC50,MT-4 cells,> 20 µM
"Cl.N#Cc1ccc(Nc2nc(Cc3c(Cl)cccc3Cl)nc(NO)n2)cc1.O [Compound 21, 4-[[4-[(2,6-dichlorophenyl)methyl]-6-(hydroxyamino)-1,3,5-triazin-2-yl]amino]benzonitrile monohydrochloride.monohydrate]",IC50,HIV-1,0.002 µM
same,SI,HIV-1,4924
same,CC50,MT-4 cells,8.9 µM
N#Cc1ccc(Nc2nc(Cc3c(Cl)cccc3Cl)nc(NC3CCOC3=O)n2)cc1 (stereo not shown) [Compound 32],IC50,HIV-1,2 µM
same,SI,HIV-1,42
same,CC50,MT-4 cells,83.4 µM
Cc1ccc(C)c(Cc2nc(N)nc(Nc3ccc(C#N)cc3)n2)c1 [Compound 57],IC50,HIV-1,0.003 µM
same,SI,HIV-1,11883
same,CC50,MT-4 cells,36.8 µM
COc1ccc(Br)cc1Cc1nc(N)nc(Nc2ccc(C#N)cc2)n1 [Compound 55],IC50,HIV-1,0.052 µM
same,SI,HIV-1,>384
same,CC50,MT-4 cells,> 20 µM
"(±)-2-[[4-[(4-cyanophenyl)amino]-6-[(2,6-dichlorophenyl)amino]-6-[(2,6-dichloro-phenyl)methyl]-1,3,5-triazin-2-yl]amino-4-hydroxybutanamide [Compound 34]",IC50,HIV-1,0.057 µM
same,SI,HIV-1,746
same,CC50,MT-4 cells,42.3 µM

# Source: patent US20060049177A1, “Induction heating cooker” (LG Electronics Inc., priority 2004, published 2006)
